Laboratory results as given in PubChem BioAssay AID200 (DTP/NCI, 2004).
Where “and” joins values, the source holds several entries; their conditions need not be identical. Identical values can stand only once. Inconclusive results and toxic doses are left out.

Test system: B6C3F1 mice, B16 melanoma ip, median survival T/C
Assay: NCI In Vivo Anticancer Drug Screen. Data for tumor model B16 Melanoma (intraperitoneal) in B6C3F1 mice
Conditions: endpoint: median survival time, schedule: Q01DX009 (ip), higher = longer survival
Procedure, shortened: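 Mice bearing transplanted tumor were dosed with compound or vehicle, and survival was recorded. Activity is expressed as the treated-group measurement (T) divided by the vehicle control measurement (C).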

[1] = dose: 100.0 mg/kg/injection, vehicle: saline with Tween-80
[2] = dose: 200.0 mg/kg/injection, vehicle: saline with Tween-80
[3] = dose: 400.0 mg/kg/injection, vehicle: saline with Tween-80

## COc1cc(NC(N)=O)ccc1Nc1c2ccc(N)cc2nc2cc(N)ccc12
dose: 0.5 mg/kg/injection, vehicle: saline
  T/C: 93 % of control
dose: 1.0 mg/kg/injection, vehicle: saline
  T/C: 111 % of control
dose: 2.0 mg/kg/injection, vehicle: saline
  T/C: 101 % of control
dose: 4.0 mg/kg/injection, vehicle: saline
  T/C: 86 % of control
dose: 8.0 mg/kg/injection, vehicle: saline
  T/C: 93 % of control
dose: 16.0 mg/kg/injection, vehicle: saline
  T/C: 98 % of control

## O=c1cc(-c2ccccc2)[nH]c2c1CCCC2
[1]
  T/C: 109 % of control
[2]
  T/C: 117 % of control

## O=C(NC(=S)Nc1ccccc1)c1ccccc1
dose: 9.4 mg/kg/injection, vehicle: Klucel (hydroxypropylcellulose) (HPC)
  T/C: 99 % of control
dose: 18.75 mg/kg/injection, vehicle: Klucel (hydroxypropylcellulose) (HPC)
  T/C: 94 % of control
dose: 37.5 mg/kg/injection, vehicle: Klucel (hydroxypropylcellulose) (HPC)
  T/C: 101 % of control
dose: 75.0 mg/kg/injection, vehicle: Klucel (hydroxypropylcellulose) (HPC)
  T/C: 103 % of control

## CC(C(C(=O)N1CCCCC1)N1CCCCC1)N1CCCCC1 (stereo not given)
[1]
  T/C: 94 % of control
[2]
  T/C: 95 % of control
[3]
  T/C: 103 % of control

## COC(=O)Nc1ccc(Cc2ccc(NC(=O)OC)cc2)cc1
dose: 6.25 mg/kg/injection, vehicle: saline with Tween-80
  T/C: 98 % of control
dose: 12.5 mg/kg/injection, vehicle: saline with Tween-80
  T/C: 99 % of control
dose: 25.0 mg/kg/injection, vehicle: saline with Tween-80
  T/C: 109 % of control and 98 % of control
dose: 50.0 mg/kg/injection, vehicle: saline with Tween-80
  T/C: 109 % of control
[1]
  T/C: 150 % of control

## c1ccc([Te][Te]c2ccccc2)cc1
dose: 3.0 mg/kg/injection, vehicle: saline with Tween-80
  T/C: 92 % of control and 94 % of control
dose: 6.0 mg/kg/injection, vehicle: saline with Tween-80
  T/C: 98 % of control and 100 % of control and 106 % of control
dose: 12.0 mg/kg/injection, vehicle: saline with Tween-80
  T/C: 112 % of control and 122 % of control and 98 % of control
dose: 24.0 mg/kg/injection, vehicle: saline with Tween-80
  T/C: 114 % of control and 121 % of control and 102 % of control
dose: 48.0 mg/kg/injection, vehicle: saline with Tween-80
  T/C: 113 % of control

## O=C(O)/C=C(\F)C(=O)O
dose: 6.25 mg/kg/injection, vehicle: saline
  T/C: 97 % of control and 100 % of control
dose: 12.5 mg/kg/injection, vehicle: saline
  T/C: 102 % of control and 107 % of control
dose: 25.0 mg/kg/injection, vehicle: saline
  T/C: 108 % of control and 117 % of control
dose: 50.0 mg/kg/injection, vehicle: saline
  T/C: 113 % of control and 114 % of control
dose: 100.0 mg/kg/injection, vehicle: saline
  T/C: 103 % of control and 113 % of control
dose: 200.0 mg/kg/injection, vehicle: saline
  T/C: 113 % of control and 103 % of control

## Cc1c2ccccc2cc2cccc[n+]12
dose: 2.5 mg/kg/injection, vehicle: saline
  T/C: 106 % of control and 107 % of control
dose: 5.0 mg/kg/injection, vehicle: saline
  T/C: 101 % of control and 104 % of control
dose: 10.0 mg/kg/injection, vehicle: saline
  T/C: 102 % of control and 107 % of control
dose: 20.0 mg/kg/injection, vehicle: saline
  T/C: 99 % of control and 101 % of control

## CCC1(O)C(=O)OCc2c1cc1n(c2=O)Cc2cc3ccccc3nc2-1 (stereo not given)
dose: 0.75 mg/kg/injection, vehicle: other
  T/C: 156 % of control
dose: 1.5 mg/kg/injection, vehicle: other
  T/C: 165 % of control

## CCN(CC)c1ccc(N=Nc2ccc(C)cc2)cc1
[1]
  T/C: 96 % of control
[2]
  T/C: 93 % of control
[3]
  T/C: 96 % of control
